PMC5218480 (PLoS ONE, 2017)

Test system: MV-4-11 cells
Test: Gene expression microarray analysis (Affymetrix PrimeView) and GSEA
Assay type: cell-based, human
Parameters: RFU PODN (11730768_x_at) / Fold change /veh PODN (11730768_x_at) / RFU LINC00158 (11744669_a_at) / Fold change /veh LINC00158 (11744669_a_at) / RFU DUSP10 (11751237_a_at) / Fold change /veh DUSP10 (11751237_a_at) / RFU ID3 (11757404_x_at) / Fold change /veh ID3 (11757404_x_at) / RFU PLEKHG5 (11737974_s_at) / Fold change /veh PLEKHG5 (11737974_s_at) / RFU LRRC4B (11730491_at) / Fold change /veh LRRC4B (11730491_at) / RFU GIMAP4 (11747438_a_at) / Fold change /veh GIMAP4 (11747438_a_at) / RFU KRT8 (11758183_x_at) / Fold change /veh KRT8 (11758183_x_at) / RFU CNN1 (11734310_a_at) / Fold change /veh CNN1 (11734310_a_at) / RFU VPS37D (11726825_at) / Fold change /veh VPS37D (11726825_at) / RFU C10orf10 (11716522_x_at) / Fold change /veh C10orf10 (11716522_x_at) / RFU KIR2DL2 /// KIR2DL4 /// KIR2DL5A /// KIR2DL5B /// KIR2DS1 /// KIR2DS2 /// KIR2DS3 /// KIR2DS4 /// KIR3DL3 /// KIR3DL3 /// KIR3DS1 (11738374_at) / Fold change /veh KIR2DL2 /// KIR2DL4 /// KIR2DL5A /// KIR2DL5B /// KIR2DS1 /// KIR2DS2 /// KIR2DS3 /// KIR2DS4 /// KIR3DL3 /// KIR3DL3 /// KIR3DS1 (11738374_at) / RFU C1QL1 (11718748_at) / Fold change /veh C1QL1 (11718748_at) / RFU TMPRSS4 (11747572_a_at) / Fold change /veh TMPRSS4 (11747572_a_at) / RFU HAMP (11756126_x_at) / Fold change /veh HAMP (11756126_x_at) / RFU RNFT2 (11725882_a_at) / Fold change /veh RNFT2 (11725882_a_at) / RFU NR4A2 (11747474_a_at) / Fold change /veh NR4A2 (11747474_a_at) / RFU ABCC12 (11746883_a_at) / Fold change /veh ABCC12 (11746883_a_at) / RFU TMEM136 (11760407_x_at) / Fold change /veh TMEM136 (11760407_x_at) / RFU CLDN22 /// WWC2 (11732394_at) / Fold change /veh CLDN22 /// WWC2 (11732394_at) / RFU HLA-DPB1 (11760878_x_at) / Fold change /veh HLA-DPB1 (11760878_x_at) / RFU SPINT1 (11716480_a_at) / Fold change /veh SPINT1 (11716480_a_at) / RFU GAP43 (11754022_s_at) / Fold change /veh GAP43 (11754022_s_at) / RFU A4GNT (11735810_at) / Fold change /veh A4GNT (11735810_at) / RFU PRB3 (11715151_x_at) / Fold change /veh PRB3 (11715151_x_at) / RFU TUBB4B (11761932_at) / Fold change /veh TUBB4B (11761932_at) / RFU CAPN14 (11732068_a_at) / Fold change /veh CAPN14 (11732068_a_at) / RFU TMCC2 (11721928_a_at) / Fold change /veh TMCC2 (11721928_a_at) / RFU IRGQ (11745062_a_at) / Fold change /veh IRGQ (11745062_a_at) / RFU FAM174B (11720279_a_at) / Fold change /veh FAM174B (11720279_a_at) / RFU TMPRSS4 (11748680_a_at) / Fold change /veh TMPRSS4 (11748680_a_at) / RFU FAM212B (11763350_a_at) / Fold change /veh FAM212B (11763350_a_at) / RFU PLEKHG5 (11743358_a_at) / Fold change /veh PLEKHG5 (11743358_a_at) / RFU ZSCAN30 (11745921_a_at) / Fold change /veh ZSCAN30 (11745921_a_at) / RFU CMKLR1 (11741424_a_at) / Fold change /veh CMKLR1 (11741424_a_at) / RFU LOC101060620 /// MAPK8IP1 (11723275_at) / Fold change /veh LOC101060620 /// MAPK8IP1 (11723275_at) / RFU SPTSSB (11747773_x_at) / Fold change /veh SPTSSB (11747773_x_at) / RFU PRSS12 (11739890_at) / Fold change /veh PRSS12 (11739890_at) / RFU BIN1 (11741810_x_at) / Fold change /veh BIN1 (11741810_x_at) / RFU WNT11 (11732464_a_at) / Fold change /veh WNT11 (11732464_a_at) / RFU C10orf10 (11716521_a_at) / Fold change /veh C10orf10 (11716521_a_at) / RFU C5orf56 (11738089_at) / Fold change /veh C5orf56 (11738089_at) / RFU CYB561 (11721691_x_at) / Fold change /veh CYB561 (11721691_x_at) / RFU ANKRD19P (11752326_a_at) / Fold change /veh ANKRD19P (11752326_a_at) / RFU OR2T12 /// OR2T33 /// OR2T8 (11738714_s_at) / Fold change /veh OR2T12 /// OR2T33 /// OR2T8 (11738714_s_at) / RFU VCAN (11748164_a_at) / Fold change /veh VCAN (11748164_a_at) / RFU JSRP1 (11732532_at) / Fold change /veh JSRP1 (11732532_at) / RFU KRTAP10-11 (11738290_x_at) / Fold change /veh KRTAP10-11 (11738290_x_at) / RFU MYO3A (11730013_a_at) / Fold change /veh MYO3A (11730013_a_at) / RFU EBF3 (11725865_a_at) / Fold change /veh EBF3 (11725865_a_at) / RFU CAMK2N1 (11719241_x_at) / Fold change /veh CAMK2N1 (11719241_x_at) / RFU C5orf56 (11738088_a_at) / Fold change /veh C5orf56 (11738088_a_at) / RFU OLFML3 (11715873_a_at) / Fold change /veh OLFML3 (11715873_a_at) / RFU LOC100653217 /// NTM (11731650_a_at) / Fold change /veh LOC100653217 /// NTM (11731650_a_at) / RFU MAPK11 (11762145_a_at) / Fold change /veh MAPK11 (11762145_a_at) / RFU FIZ1 (11724087_x_at) / Fold change /veh FIZ1 (11724087_x_at) / RFU OASL (11726364_x_at) / Fold change /veh OASL (11726364_x_at) / RFU SOX15 (11748057_x_at) / Fold change /veh SOX15 (11748057_x_at) / RFU CD79A (11719716_a_at) / Fold change /veh CD79A (11719716_a_at) / RFU HIST1H1D (11736915_at) / Fold change /veh HIST1H1D (11736915_at) / RFU CASKIN2 (11723855_a_at) / Fold change /veh CASKIN2 (11723855_a_at) / RFU LOC730098 (11760151_x_at) / Fold change /veh LOC730098 (11760151_x_at) / RFU OR4N2 (11742367_at) / Fold change /veh OR4N2 (11742367_at) / RFU PRRT2 (11749266_a_at) / Fold change /veh PRRT2 (11749266_a_at) / RFU SNX32 (11753110_a_at) / Fold change /veh SNX32 (11753110_a_at) / RFU CDHR5 (11726645_a_at) / Fold change /veh CDHR5 (11726645_a_at) / RFU RCAN1 (11760418_a_at) / Fold change /veh RCAN1 (11760418_a_at) / RFU FAM167A (11723789_a_at) / Fold change /veh FAM167A (11723789_a_at) / RFU FAM26E (11764081_at) / Fold change /veh FAM26E (11764081_at) / RFU ISYNA1 (11749810_s_at) / Fold change /veh ISYNA1 (11749810_s_at) / RFU ACY1 (11761880_at) / Fold change /veh ACY1 (11761880_at) / RFU 11764098_at / Fold change /veh 11764098_at / RFU SAMD14 (11745864_x_at) / Fold change /veh SAMD14 (11745864_x_at) / RFU NPB (11741838_a_at) / Fold change /veh NPB (11741838_a_at) / RFU TMPRSS6 (11731388_a_at) / Fold change /veh TMPRSS6 (11731388_a_at) / RFU KRTAP10-2 (11738614_at) / Fold change /veh KRTAP10-2 (11738614_at) / RFU ARHGAP8 /// PRR5-ARHGAP8 (11727945_x_at) / Fold change /veh ARHGAP8 /// PRR5-ARHGAP8 (11727945_x_at) / RFU KRTAP5-7 /// NADSYN1 (11734609_at) / Fold change /veh KRTAP5-7 /// NADSYN1 (11734609_at) / RFU RASL12 (11751679_a_at) / Fold change /veh RASL12 (11751679_a_at) / RFU CDKN2B (11736163_a_at) / Fold change /veh CDKN2B (11736163_a_at) / RFU PRF1 (11729649_at) / Fold change /veh PRF1 (11729649_at) / RFU, ZNF638 /// ZNF638-IT1 / Fold change vs veh, ZNF638 /// ZNF638-IT1 / RFU, PANK3 / Fold change vs veh, PANK3 / RFU, SH3YL1 / Fold change vs veh, SH3YL1 / RFU, ZEB2 / Fold change vs veh, ZEB2 / RFU, NRIP1 / Fold change vs veh, NRIP1 / RFU, PTTG1IP / Fold change vs veh, PTTG1IP / RFU, CAPN2 / Fold change vs veh, CAPN2 / RFU, MED14 / Fold change vs veh, MED14 / RFU, SNORA58 / Fold change vs veh, SNORA58 / RFU, C1orf63 / Fold change vs veh, C1orf63 / RFU, LRRFIP1 / Fold change vs veh, LRRFIP1 / RFU, NDUFAF7 / Fold change vs veh, NDUFAF7 / RFU, SLC12A2 / Fold change vs veh, SLC12A2 / RFU, IBTK / Fold change vs veh, IBTK / RFU, ESF1 / Fold change vs veh, ESF1 / Fold change vs veh, TMEM50B / RFU, TAOK1 / Fold change vs veh, TAOK1 / RFU, ACBD3 / Fold change vs veh, ACBD3 / RFU, TMA16 / Fold change vs veh, TMA16 / RFU, RWDD3 / Fold change vs veh, RWDD3 / RFU, BCAT1 / Fold change vs veh, BCAT1 / RFU, EDEM3 / Fold change vs veh, EDEM3 / RFU, TMEM33 / Fold change vs veh, TMEM33 / RFU, WDR75 / Fold change vs veh, WDR75 / RFU, AHCTF1 / Fold change vs veh, AHCTF1 / RFU, TFRC / Fold change vs veh, TFRC / RFU, ZDHHC17 / Fold change vs veh, ZDHHC17 / RFU, NOM1 / Fold change vs veh, NOM1 / RFU, ARL8B / Fold change vs veh, ARL8B / RFU, ZBTB11 / Fold change vs veh, ZBTB11 / RFU, TAMM41 / Fold change vs veh, TAMM41 / RFU, KIAA1704 /// LOC100996395 / Fold change vs veh, KIAA1704 /// LOC100996395 / RFU, ING1 / Fold change vs veh, ING1 / RFU, TRMT61B / Fold change vs veh, TRMT61B / RFU, FUBP3 / Fold change vs veh, FUBP3 / RFU, TP53 / Fold change vs veh, TP53 / RFU, TNKS2 / Fold change vs veh, TNKS2 / RFU, ZFP14 / Fold change vs veh, ZFP14 / RFU, ACTR2 / Fold change vs veh, ACTR2 / RFU, PPP3R1 / Fold change vs veh, PPP3R1 / RFU, PIK3R1 / Fold change vs veh, PIK3R1 / RFU, HNRNPA1 / Fold change vs veh, HNRNPA1 / RFU, RNF170 / Fold change vs veh, RNF170 / RFU, ZNF28 / Fold change vs veh, ZNF28 / RFU, RNGTT / Fold change vs veh, RNGTT / RFU, OGT / Fold change vs veh, OGT / RFU, BRD1 / Fold change vs veh, BRD1 / RFU, MARS / Fold change vs veh, MARS / RFU, ZNF655 / Fold change vs veh, ZNF655 / RFU, FAHD1 / Fold change vs veh, FAHD1 / RFU, BDP1 / Fold change vs veh, BDP1 / RFU, LRRCC1 / Fold change vs veh, LRRCC1 / RFU, ARID1A / Fold change vs veh, ARID1A / RFU, ZNF146 / Fold change vs veh, ZNF146 / RFU, ZNF330 / Fold change vs veh, ZNF330 / RFU, GPN3 / Fold change vs veh, GPN3 / RFU, C9orf123 / Fold change vs veh, C9orf123 / RFU, N4BP2L2 / Fold change vs veh, N4BP2L2 / RFU, ARFIP1 / Fold change vs veh, ARFIP1 / RFU, FAM179B / Fold change vs veh, FAM179B / RFU, BCL10 / Fold change vs veh, BCL10 / RFU, UHRF1BP1L / Fold change vs veh, UHRF1BP1L / RFU, BET1 / Fold change vs veh, BET1 / RFU, CNOT2 / Fold change vs veh, CNOT2 / RFU, ZNF268 / Fold change vs veh, ZNF268 / Fold change vs veh, ZNF507 / RFU, DGCR2 / Fold change vs veh, DGCR2 / RFU, WDSUB1 / Fold change vs veh, WDSUB1 / Fold change vs veh, HSP90B1 /// MIR3652 / RFU, ADSS / Fold change vs veh, ADSS / RFU, GK / Fold change vs veh, GK / RFU, ZNF148 / Fold change vs veh, ZNF148 / RFU, TAF9 / Fold change vs veh, TAF9 / RFU, SLC1A5 / Fold change vs veh, SLC1A5 / RFU, SLMO2 / Fold change vs veh, SLMO2 / RFU, ABCC4 / Fold change vs veh, ABCC4 / RFU, LOC101060439 /// RAP1B / Fold change vs veh, LOC101060439 /// RAP1B / RFU, RFX7 / Fold change vs veh, RFX7 / RFU, GTPBP10 / Fold change vs veh, GTPBP10 / RFU, CNEP1R1 / Fold change vs veh, CNEP1R1 / RFU, BIVM-ERCC5 /// ERCC5 / Fold change vs veh, BIVM-ERCC5 /// ERCC5 / RFU, ILF3 / Fold change vs veh, ILF3 / RFU 11762660_at / Fold change /veh 11762660_at / RFU VCAN (11757783_s_at) / Fold change /veh VCAN (11757783_s_at) / RFU DDX43 (11728927_at) / Fold change /veh DDX43 (11728927_at) / RFU KRT8 (11758188_x_at) / Fold change /veh KRT8 (11758188_x_at) / RFU NKD1 (11759106_at) / Fold change /veh NKD1 (11759106_at) / RFU SRD5A1 (11742802_a_at) / Fold change /veh SRD5A1 (11742802_a_at) / RFU TPSAB1 /// TPSB2 (11721975_s_at) / Fold change /veh TPSAB1 /// TPSB2 (11721975_s_at) / RFU GSTM3 (11746129_a_at) / Fold change /veh GSTM3 (11746129_a_at) / RFU IL23R (11737362_x_at) / Fold change /veh IL23R (11737362_x_at) / RFU TMEM51 (11727254_a_at) / Fold change /veh TMEM51 (11727254_a_at) / RFU PIWIL2 (11732686_x_at) / Fold change /veh PIWIL2 (11732686_x_at) / RFU ORM1 (11744905_x_at) / Fold change /veh ORM1 (11744905_x_at) / RFU CCDC152 (11743942_at) / Fold change /veh CCDC152 (11743942_at) / RFU ECM1 (11717891_a_at) / Fold change /veh ECM1 (11717891_a_at) / RFU IL23R (11748794_a_at) / Fold change /veh IL23R (11748794_a_at) / RFU TNFAIP8L3 (11732012_x_at) / Fold change /veh TNFAIP8L3 (11732012_x_at) / RFU MBOAT4 (11741988_at) / Fold change /veh MBOAT4 (11741988_at) / RFU 11764193_at / Fold change /veh 11764193_at / RFU TMEM53 (11763286_at) / Fold change /veh TMEM53 (11763286_at) / RFU MAGEB2 (11727129_at) / Fold change /veh MAGEB2 (11727129_at) / RFU TMEM200A (11744735_a_at) / Fold change /veh TMEM200A (11744735_a_at) / RFU CCDC152 (11751479_a_at) / Fold change /veh CCDC152 (11751479_a_at) / RFU FAM211A (11726209_a_at) / Fold change /veh FAM211A (11726209_a_at) / RFU RGS16 (11746705_a_at) / Fold change /veh RGS16 (11746705_a_at) / RFU VCAN (11755009_s_at) / Fold change /veh VCAN (11755009_s_at) / RFU RHOB (11743442_s_at) / Fold change /veh RHOB (11743442_s_at) / RFU RGS16 (11720943_a_at) / Fold change /veh RGS16 (11720943_a_at) / RFU RGS16 (11720944_at) / Fold change /veh RGS16 (11720944_at) / RFU, VPS4B / Fold change vs veh, VPS4B / RFU, CREB1 / Fold change vs veh, CREB1 / RFU, DNAJC13 / Fold change vs veh, DNAJC13 / RFU, GNAQ / Fold change vs veh, GNAQ / RFU, CDK5R1 / Fold change vs veh, CDK5R1 / RFU, ZRANB3 / Fold change vs veh, ZRANB3 / RFU, CUL4A / Fold change vs veh, CUL4A / RFU, CCNY / Fold change vs veh, CCNY / RFU, UFL1 / Fold change vs veh, UFL1 / RFU, COG3 / Fold change vs veh, COG3 / RFU, DIAPH2 / Fold change vs veh, DIAPH2 / RFU, SKA2 / Fold change vs veh, SKA2 / RFU, AFF3 / Fold change vs veh, AFF3 / RFU, LMF1 / Fold change vs veh, LMF1 / RFU, IPO11 / Fold change vs veh, IPO11 / RFU, DFFB / Fold change vs veh, DFFB / RFU, FOXP1 / Fold change vs veh, FOXP1 / RFU, CARD8 / Fold change vs veh, CARD8 / RFU, STRN3 / Fold change vs veh, STRN3 / RFU, ADK / Fold change vs veh, ADK / RFU, RASSF2 / Fold change vs veh, RASSF2 / RFU, WIPF1 / Fold change vs veh, WIPF1 / RFU, LARP1B / Fold change vs veh, LARP1B / RFU, RASA1 / Fold change vs veh, RASA1 / RFU, RB1 / Fold change vs veh, RB1 / RFU, PPFIA1 / Fold change vs veh, PPFIA1 / RFU, MAT2A / Fold change vs veh, MAT2A / RFU, CCT5 / Fold change vs veh, CCT5 / RFU, WDR92 / Fold change vs veh, WDR92 / RFU, CUX1 / Fold change vs veh, CUX1 / RFU, TTC7A / Fold change vs veh, TTC7A / RFU, TMEM135 / Fold change vs veh, TMEM135 / RFU, DEPTOR / Fold change vs veh, DEPTOR / RFU, CPM / Fold change vs veh, CPM / RFU, DNAJB6 / Fold change vs veh, DNAJB6 / RFU, CACNA2D3 / Fold change vs veh, CACNA2D3 / RFU, DTX4 / Fold change vs veh, DTX4 / RFU, TFCP2 / Fold change vs veh, TFCP2 / RFU, GMCL1 /// GMCL1P1 / Fold change vs veh, GMCL1 /// GMCL1P1 / RFU, AEBP2 / Fold change vs veh, AEBP2 / RFU, SNHG1 /// SNORD22 /// SNORD25 /// SNORD26 /// SNORD27 /// SNORD28 /// SNORD29 /// SNORD31 / Fold change vs veh, SNHG1 /// SNORD22 /// SNORD25 /// SNORD26 /// SNORD27 /// SNORD28 /// SNORD29 /// SNORD31 / Fold change (Aza/veh), C12orf56 (ProbeSet 11735607_a_at) / Fold change (ACY-1035/veh), C12orf56 (ProbeSet 11735607_a_at) / Fold change (Aza/veh), FGFR1OP (ProbeSet 11751329_s_at) / Fold change (ACY-1035/veh), FGFR1OP (ProbeSet 11751329_s_at) / Fold change (Aza/veh), VPS36 (ProbeSet 11739960_a_at) / Fold change (ACY-1035/veh), VPS36 (ProbeSet 11739960_a_at) / RFU SYPL1 (11715823_x_at) / Fold change /veh SYPL1 (11715823_x_at) / RFU IGFBP7 (11715501_s_at) / Fold change /veh IGFBP7 (11715501_s_at) / RFU REEP3 (11722064_at) / Fold change /veh REEP3 (11722064_at) / RFU IGLL1 (11728026_x_at) / Fold change /veh IGLL1 (11728026_x_at): dose or concentration left out as unconfirmed
Conditions: ProbeSet 11732281_s_at; LIST D

Nc1ncn([C@@H]2O[C@H](CO)[C@@H](O)[C@H]2O)c(=O)n1 [azacitidine]
Fold change vs veh, FOXP1: 0.63
